From the supplement of paper PMC10307832

Legend:
Assay in all cases: relative viability (nuclei count vs DMSO), 5 days (fraction); higher = more cells survive
VE-821 + Alpelisib = compound: CS(=O)(=O)c1ccc(-c2cnc(N)c(C(=O)Nc3ccccc3)n2)cc1 [VE-821] + Cc1nc(NC(=O)N2CCC[C@H]2C(N)=O)sc1-c1ccnc(C(C)(C)C(F)(F)F)c1 [Alpelisib] (partner 2 µM)
In short: (§1)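 Lung cancer cell lines were pin-tool dosed in 1536-well plates on the day after seeding, with either a lone drug or a fixed anchor-drug dose plus five library-drug doses (not always all listed) in √10 steps. Nuclei were counted on 4× images after 5 days. Relative viability is the ratio of treated-well to vehicle-well nuclei counts, with each value a median of duplicate plates.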

Ruxolitinib + AZD7762 = compound: N#CC[C@H](C1CCCC1)n1cc(-c2ncnc3[nH]ccc23)cn1 [Ruxolitinib] + NC(=O)Nc1cc(-c2cccc(F)c2)sc1C(=O)N[C@H]1CCCNC1 [AZD7762] (partner 0.2 µM)
In short: as §1

Ruxolitinib + Navitoclax = compound: N#CC[C@H](C1CCCC1)n1cc(-c2ncnc3[nH]ccc23)cn1 [Ruxolitinib] + CC1(C)CCC(c2ccc(Cl)cc2)=C(CN2CCN(c3ccc(C(=O)NS(=O)(=O)c4ccc(N[C@H](CCN5CCOCC5)CSc5ccccc5)c(S(=O)(=O)C(F)(F)F)c4)cc3)CC2)C1 [Navitoclax] (partner 0.5 µM)
In short: as §1

Vismodegib + Tozasertib = compound: CS(=O)(=O)c1ccc(C(=O)Nc2ccc(Cl)c(-c3ccccn3)c2)c(Cl)c1 [Vismodegib] + Cc1cc(Nc2cc(N3CCN(C)CC3)nc(Sc3ccc(NC(=O)C4CC4)cc3)n2)n[nH]1 [Tozasertib] (partner 0.1 µM)
In short: as §1

| Cell Line | relative viability (VE-821 + Alpelisib; first compound 0.08 µM) | relative viability (VE-821 + Alpelisib; first compound 0.253 µM) | relative viability (VE-821 + Alpelisib; first compound 0.8 µM) | relative viability (VE-821 + Alpelisib; first compound 2.53 µM) | relative viability (VE-821 + Alpelisib; first compound 8 µM) | relative viability (Ruxolitinib + AZD7762; first compound 0.08 µM) | relative viability (Ruxolitinib + AZD7762; first compound 0.253 µM) | relative viability (Ruxolitinib + AZD7762; first compound 0.8 µM) | relative viability (Ruxolitinib + AZD7762; first compound 2.53 µM) | relative viability (Ruxolitinib + AZD7762; first compound 8 µM) | relative viability (Ruxolitinib + Navitoclax; first compound 0.253 µM) | relative viability (Ruxolitinib + Navitoclax; first compound 0.8 µM) | relative viability (Ruxolitinib + Navitoclax; first compound 2.53 µM) | relative viability (Ruxolitinib + Navitoclax; first compound 8 µM) | relative viability (Vismodegib + Tozasertib; first compound 0.08 µM) | relative viability (Vismodegib + Tozasertib; first compound 0.253 µM) | relative viability (Vismodegib + Tozasertib; first compound 0.8 µM) | relative viability (Vismodegib + Tozasertib; first compound 2.53 µM) | relative viability (Vismodegib + Tozasertib; first compound 8 µM) | relative viability (Ruxolitinib + Navitoclax; first compound 0.08 µM) |
| --- | --- | --- | --- | --- | --- | --- | --- | --- | --- | --- | --- | --- | --- | --- | --- | --- | --- | --- | --- | --- |
| NCI-H647 | 1.17 | 1.07 | 0.944 | 0.901 | 0.424 | 0.398 | 0.499 | 0.421 | 0.439 | 0.366 | 0.995 | 1.27 | 0.855 | 0.989 | 0.253 | 0.205 | 0.265 | 0.188 | 0.227 |  |
| NCI-H3122 | 0.949 | 0.746 | 0.774 | 0.871 | 0.78 | 0.98 | 1.07 | 1.05 | 0.943 | 0.891 | 1.03 | 0.981 | 0.923 | 0.963 | 0.399 | 0.382 | 0.343 | 0.384 | 0.373 | 1.04 |
| PC-3 [JPC-3] | 1.05 | 0.957 | 1.02 | 1.05 | 1.04 |  | 0.82 | 0.866 | 0.946 | 0.814 | 0.771 | 0.771 | 0.757 | 0.73 | 0.932 | 0.87 | 0.933 | 0.852 | 0.873 | 0.69 |
| NCI-H1355 | 0.911 | 0.803 | 0.562 | 0.8 | 0.531 | 0.729 | 0.735 | 0.878 | 0.604 | 0.668 | 0.925 | 0.992 | 0.807 | 0.701 | 0.568 | 0.557 | 0.613 | 0.577 | 0.548 | 0.924 |
| NCI-H838 | 1.1 | 0.955 | 0.911 | 0.966 | 0.907 | 0.925 | 0.874 | 0.87 | 0.776 | 0.721 | 1.06 | 1.04 | 0.641 | 0.406 | 0.263 | 0.276 | 0.263 | 0.283 | 0.29 | 1.08 |
